Measurements reported in US20090326032A1, “PHARMACEUTICAL COMPOSITIONS COMPRISING NK1 RECEPTOR ANTAGONISTS AND SODIUM CHANNEL BLOCKERS” (GLAXO GROUP LIMITED, priority 2007, published 2009).
Structures can show the parent of a compound that is named as a salt. Where two headings read alike, the source gives them in different places.

Experiments:
[1] = blood and brain drug concentrations in satellite animals; type: in vivo, rat; settings: for concentration at 60 min: CD, rat, intraperitoneal
[2] = tested on: tonic hindlimb extensor seizures; test: threshold for tonic hindlimb extensor seizures, corneal electroshock, 'up and down' method (CC50); type: in vivo, rat; settings: ENa7 3 mg/kg s.c. alone, male CD rats
Procedure: This work was conducted in compliance with the Home Office Guidance on the operation of the Animals (Scientific Procedures) Act 1986 and GlaxoSmithKline ethical standards. Male CD rats (100-145 g) were supplied by Charles River, UK. Animals were group housed (6 animal per cage) with free access to food (Standard rodent chow; Harlan, UK) and water under a 12 h light/dark cycle (lights on at 0700 h). A period of at least one week between arrival at GSK and the study was allowed in all cases.
Animals were administered a test compound at the appropriate dose, route and pre-treatment time and returned to their home cage. Testing occurred in a separate room from that used for housing. […] Seizure threshold was determined using the ‘up and down’ method of Kimball et al. (1957)(Kimball A W, Burnett W T Jr, Doherty D G. (1957) Radiat Res. 7(1):1-12). […]
All doses were calculated as base. […]
Induction of seizure is measured as an all-or-nothing effect scored as either present (+) or absent (0) for each animal. […] Drug effects were calculated as the % change in CC50. Significant differences between drug-treated animals and appropriate vehicle treated groups were assessed according to the methods of Litchfield and Wilcoxon (1949). […]

COc1ccc(-n2nnnc2C(F)(F)F)cc1CN[C@H]1CCCN[C@H]1c1ccccc1 [ENK6, [2-Methoxy-5-(5-trifluoromethyl-tetrazol-1-yl)-benzyl]-([2S,3S]-2-phenyl-piperidin-3-yl)-amine dihydrochloride]
concentration at 60 min ([1]; blood, 30 mg/kg, ENK6 30 mg/kg, ENa7 veh, n = 1, read-out: Blood ENK6): 558 ng/mL | concentration at 60 min ([1]; blood, ENK6 30 mg/kg + ENa7 1 mg/kg, n = 2, read-out: Blood ENK6): 456 ng/mL | concentration at 60 min ([1]; blood, ENK6 30 mg/kg + ENa7 3 mg/kg, n = 2, read-out: Blood ENK6): 1210 ng/mL | concentration at 60 min ([1]; brain, 30 mg/kg, ENK6 30 mg/kg, ENa7 veh, n = 1, read-out: Brain ENK6): 1260 ng/g | concentration at 60 min ([1]; brain, ENK6 30 mg/kg + ENa7 1 mg/kg, n = 2, read-out: Brain ENK6): 1040 ng/g | concentration at 60 min ([1]; brain, ENK6 30 mg/kg + ENa7 3 mg/kg, n = 2, read-out: Brain ENK6): 4800 ng/g

CN1CC[C@]2(CC[C@H](c3ccc(OCc4ccccc4F)cc3)N2)C1=O.Cl [ENa7, (2R,5R)-2-(4-{[(2-Fluorophenyl)methyl]oxy}phenyl)-7-methyl-1,7-diazaspiro[4.4]nonan-6-one hydrochloride]
seizure threshold [2]: robust and significant increase | concentration of ENa7 in the presence of the NK1 antagonist ([1]; blood and brain, with vs without ENK6 30 mg/kg): No increase
